Test results reported in PubChem BioAssay (NCI).
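Results reflect a 48-hour exposure of cells in 96-well plates to compound at five concentrations. The concentration for 50% growth inhibition is given as GI50. TGI denotes the concentration required for complete inhibition of growth.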

Key:
Test in all cases: NCI-60 cell line screen, 48 h
[1] = test system: 786-0 renal
[2] = test system: A498 renal
[3] = test system: A549 NSCLC
[4] = test system: ACHN renal
[5] = test system: BT-549 breast
[6] = test system: CCRF-CEM leukemia
[7] = test system: COLO 205 colon
[8] = test system: DU-145 prostate
[9] = test system: EKVX NSCLC
[10] = test system: HCC-2998 colon
[11] = test system: HCT-116 colon
[12] = test system: HCT-15 colon
[13] = test system: HL-60(TB) leukemia
[14] = test system: HOP-62 NSCLC
[15] = test system: HOP-92 NSCLC
[16] = test system: HS 578T breast
[17] = test system: HT29 colon
[18] = test system: IGROV1 ovarian
[19] = test system: K-562 leukemia
[20] = test system: KM12 colon
[21] = test system: LOX IMVI melanoma
[22] = test system: M14 melanoma
[23] = test system: MALME-3M melanoma
[24] = test system: MCF7 breast
[25] = test system: MDA-MB-231 breast
[26] = test system: MDA-MB-435
[27] = test system: MOLT-4 leukemia
[28] = test system: NCI-H226 lung
[29] = test system: NCI-H23 lung

## O=C(C1CC1)N1CC[C@@H](Cc2n[nH]c(=O)n2-c2ccc(-c3ccc4occc4c3)cc2)C1
[1]
  GI50: 12.3 µM
  TGI: > 100 µM
[2]
  GI50: 15 µM
  TGI: > 85.4 µM
[3]
  GI50: 16.9 µM
  TGI: > 100 µM
[4]
  GI50: 11.8 µM
  TGI: 54.8 µM
[5]
  GI50: 1.65 µM
  TGI: 48.7 µM
[6]
  GI50: 15.6 µM
  TGI: > 100 µM
[7]
  GI50: 15 µM
  TGI: 72.5 µM
[8]
  GI50: 23.4 µM
  TGI: > 100 µM
[9]
  GI50: 12.6 µM
  TGI: > 100 µM
[10]
  GI50: 33.9 µM
  TGI: > 100 µM
[11]
  GI50: 14.3 µM
  TGI: 84 µM
[12]
  GI50: 11.2 µM
  TGI: > 100 µM
[13]
  GI50: 0.131 µM
  TGI: > 44.4 µM
[14]
  GI50: 23.4 µM
  TGI: > 100 µM
[15]
  GI50: 24.4 µM
  TGI: > 100 µM
[16]
  GI50: 21.3 µM
  TGI: > 100 µM
[17]
  GI50: 7.51 µM
  TGI: > 81.1 µM
[18]
  GI50: 21.2 µM
  TGI: > 100 µM
[19]
  GI50: 8.18 µM
  TGI: > 100 µM
[20]
  GI50: 17.6 µM
  TGI: > 100 µM
[21]
  GI50: 10.3 µM
  TGI: 51.3 µM
[22]
  GI50: 17.2 µM
  TGI: > 100 µM
[23]
  GI50: 22.4 µM
  TGI: > 87.8 µM
[24]
  GI50: 1.62 µM
  TGI: > 100 µM
[25]
  GI50: 20.4 µM
  TGI: > 100 µM
[26]
  GI50: 14.8 µM
  TGI: > 87.6 µM
[27]
  GI50: 6.09 µM
  TGI: > 88.5 µM
[28]
  GI50: 19.6 µM
  TGI: > 100 µM
[29]
  GI50: 39.1 µM
